Tests used:
[1] = test system: rabbit serum obtained by immunizing a rabbit with the SARS-CoV strain Frankfurt 1; assay type: binding; design: Binding of a rabbit serum to linear peptides / Binding of a rabbit serum to looped peptides / Rabbit serum linear peptides / Rabbit serum looped peptides / Binding of a rabbit serum to linear peptides of protein N of SARS-CoV Urbani (Rabbit serum linear peptides) / Binding of a rabbit serum to looped/cyclic peptides of protein N of SARS-CoV Urbani (Rabbit serum looped peptides): unit not given here
[2] = test system: recombinant human anti-SARS-CoV antibody 03-018; assay type: binding; design: Binding of antibody 03-018 to linear peptides of the N protein of SARS-CoV Urbani / Binding of antibody 03-018 to looped/cyclic peptides of the N protein of SARS-CoV Urbani: unit not given here
[3] = test system: antibodies in sera from SARS patients (sera 1a, 1b, 2, 6, 37, 62, London, SARS-yellow, SARS-green); assay type: binding, human; design: Binding of serum 6 to linear peptides of protein X1 of SARS-CoV Urbani / Binding of serum 37 to linear peptides of protein X1 of SARS-CoV Urbani / Binding of serum 6 to looped/cyclic peptide (PEPSCAN-ELISA) / Binding of serum 37 to looped/cyclic peptide (PEPSCAN-ELISA) / Binding of serum 37 to looped/cyclic peptides of protein X1 of SARS-CoV Urbani / Binding of serum 6 to linear peptides of protein X2 / Binding of serum 37 to linear peptides of protein X2 / Binding of serum 37 to looped/cyclic peptides of protein X2 of SARS-CoV Urbani / Binding of serum 6 to linear peptides of protein M of SARS-CoV Urbani / Binding of serum 37 to linear peptides of protein M of SARS-CoV Urbani / Binding of serum 6 to looped/cyclic peptides of protein M of SARS-CoV Urbani / Binding of serum 37 to looped/cyclic peptides of protein M of SARS-CoV Urbani / Binding of serum 6 to linear peptides of protein X3 of SARS-CoV Urbani / Binding of serum 37 to linear peptides of protein X3 of SARS-CoV Urbani / Binding of serum 37 to looped/cyclic peptides of protein X3 of SARS-CoV Urbani / Binding of serum 6 to linear peptides of protein X4 of SARS-CoV Urbani / Binding of serum 37 to linear peptides of protein X4 of SARS-CoV Urbani / Binding of serum 37 to looped/cyclic peptides of protein X4 of SARS-CoV Urbani / Binding of serum 6 to linear peptides of protein X5 of SARS-CoV Urbani / Binding of serum 37 to linear peptides of protein X5 of SARS-CoV Urbani / Binding of serum 37 to looped/cyclic peptides of protein X5 of SARS-CoV Urbani / Binding of serum 6 to linear peptides of protein N of SARS-CoV Urbani / Binding of serum 37 to linear peptides of protein N of SARS-CoV Urbani / Binding of serum 6 to linear peptide (PEPSCAN-ELISA) / Binding of serum 1a to looped/cyclic peptides of protein N of SARS-CoV Urbani / Binding of serum 1b to looped/cyclic peptides of protein N of SARS-CoV Urbani / Binding of serum 2 to looped/cyclic peptides of protein N of SARS-CoV Urbani / Binding of serum 6 to looped/cyclic peptides of protein N of SARS-CoV Urbani / Binding of serum 37 to looped/cyclic peptides of protein N of SARS-CoV Urbani / Binding of serum 62 to looped/cyclic peptides of protein N of SARS-CoV Urbani / Binding of serum London to looped/cyclic peptides of protein N of SARS-CoV Urbani / Binding of serum SARS-green to looped/cyclic peptides of protein N of SARS-CoV Urbani: unit not given here
[4] = test system: control sera (pooled serum of ten healthy LUMC hospital workers; commercial negative donor pooled serum from the Dutch bloodbank); assay type: binding, human; design: Binding of Control serum LUMC to linear peptides / Binding of Control serum Blood-bank to linear peptides / Binding of Control serum LUMC to looped peptides / Binding of Control Serum Blood-Bank to Looped peptides / Binding of Control serum LUMC to linear peptides of the protein M of SARS-CoV Urbani / Binding of Control serum Blood-bank to linear peptides of the protein M of SARS-CoV Urbani / Binding of Control serum LUMC to looped peptides of the protein M of SARS-CoV Urbani / Binding of Control Serum Blood-Bank to Looped peptides of the protein M of SARS-CoV Urbani: unit not given here

| Sequence | Binding of a rabbit serum to linear peptides of protein N of SARS-CoV Urbani (Rabbit serum linear peptides) [1] | Binding of a rabbit serum to looped/cyclic peptides of protein N of SARS-CoV Urbani (Rabbit serum looped peptides) [1] | Binding of antibody 03-018 to linear peptides of the N protein of SARS-CoV Urbani [2] | Binding of antibody 03-018 to looped/cyclic peptides of the N protein of SARS-CoV Urbani [2] | Binding of serum 1a to looped/cyclic peptides of protein N of SARS-CoV Urbani [3] | Binding of serum 1b to looped/cyclic peptides of protein N of SARS-CoV Urbani [3] | Binding of serum 2 to looped/cyclic peptides of protein N of SARS-CoV Urbani [3] | Binding of serum 6 to looped/cyclic peptides of protein N of SARS-CoV Urbani [3] | Binding of serum 37 to looped/cyclic peptides of protein N of SARS-CoV Urbani [3] | Binding of serum 62 to looped/cyclic peptides of protein N of SARS-CoV Urbani [3] | Binding of serum London to looped/cyclic peptides of protein N of SARS-CoV Urbani [3] | Binding of serum SARS-green to looped/cyclic peptides of protein N of SARS-CoV Urbani [3] | Binding of serum SARS-yellow to looped/cyclic peptides of protein N of SARS-CoV Urbani [3] | Binding of serum 1a to linear peptides of protein N of SARS-CoV Urbani [3] | Binding of serum 1b to linear peptides of protein N of SARS-CoV Urbani [3] | Binding of serum 2 to linear peptides of protein N of SARS-CoV Urbani [3] | Binding of serum 6 to linear peptides of protein N of SARS-CoV Urbani [3] | Binding of serum 37 to linear peptides of protein N of SARS-CoV Urbani [3] | Binding of serum 62 to linear peptides of protein N of SARS-CoV Urbani [3] | Binding of serum London to linear peptides of protein N of SARS-CoV Urbani [3] | other results |
| --- | --- | --- | --- | --- | --- | --- | --- | --- | --- | --- | --- | --- | --- | --- | --- | --- | --- | --- | --- | --- | --- |
| EGSRGGSQASSRSSS | 0.2 | 0.7 | 0.1 | 0.2 | 0.4 | 0.3 | 0.4 | 0.6 | 0.6 | 0.4 | 0.4 | 0.7 | 0.7 | – | – | – | – | – | – | – | Binding of serum 1a to linear peptide (PEPSCAN-ELISA) [3]: 0.3; Binding of serum 1b to linear peptide (PEPSCAN-ELISA) [3]: 0.2; Binding of serum 2 to linear peptide (PEPSCAN-ELISA) [3]: 0.3; Binding of serum 6 to linear peptide (PEPSCAN-ELISA) [3]: 0.4; Binding of serum 37 to linear peptide (PEPSCAN-ELISA) [3]: 0.9; Binding of serum 62 to linear peptide (PEPSCAN-ELISA) [3]: 0.8; Binding of serum London to linear peptide (PEPSCAN-ELISA) [3]: 0.5; Binding of serum SARS-green to linear peptide (PEPSCAN-ELISA) [3]: 0.6; Binding of serum SARS-yellow to linear peptide (PEPSCAN-ELISA) [3]: 0.6; Binding of Control Serum Blood-Bank to Looped peptides [4]: 0.7; Binding of Control serum Blood-bank to linear peptides [4]: 1.0; Binding of Control serum LUMC to linear peptides [4]: 1.0; Binding of Control serum LUMC to looped peptides [4]: 0.8 |
| EVTPSGTWLTYHGAI | 0.1 | 0.3 | 0.1 | 0.2 | 0.4 | 0.3 | 0.5 | 0.3 | 0.8 | 0.9 | 0.5 | 0.7 | 0.4 | 0.2 | 0.1 | 0.1 | 0.2 | 0.7 | 0.5 | 0.4 | Binding of serum SARS-green to linear peptides of protein N of SARS-CoV Urbani [3]: 0.1; Binding of serum SARS-yellow to linear peptides of protein N of SARS-CoV Urbani [3]: 0.5; Control Serum Blood-Bank Looped peptides [4]: 0.8; Control serum Blood-bank linear peptides [4]: 0.7; Control serum LUMC linear peptides [4]: 0.6; Control serum LUMC looped peptides [4]: 0.7 |
| FAPSASAFFGMSRIG | 0.0 | 0.3 | 0.1 | 0.2 | 0.3 | 0.1 | 0.4 | 0.3 | 0.5 | 0.4 | 0.9 | 0.0 | 0.5 | 0.2 | 0.1 | 0.2 | 0.1 | 0.6 | 0.5 | 0.4 | Binding of serum SARS-green to linear peptides of protein N of SARS-CoV Urbani [3]: 0.4; Binding of serum SARS-yellow to linear peptides of protein N of SARS-CoV Urbani [3]: 0.5; Control Serum Blood-Bank Looped peptides [4]: 0.4; Control serum Blood-bank linear peptides [4]: 0.5; Control serum LUMC linear peptides [4]: 0.6; Control serum LUMC looped peptides [4]: 0.4 |

Reference: patent US20070128217A1 (priority 2003, published 2007)
